Results on 13 compounds are retold here after PubChem BioAssay (NCI).

Structures are written as SMILES. “And” between values parts separate entries of the source, which are not always exact repeats. Equal values may be shown once.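 The compound was tested at five concentrations on cells cultured in 96-well plates, with a 48-hour exposure period. GI50 is the concentration that inhibits growth by half. At the TGI there is no net growth.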

Some test systems named below: OVCAR-4 ovarian; SF-268 CNS; SF-295 CNS; DU-145 prostate; A549 NSCLC; RPMI-8226 leukemia; U251 CNS; SNB-19 CNS; MALME-3M melanoma; MDA-MB-231 breast.
Holding throughout (experiment): inhibition of tumour cell growth, NCI panel, 48 h

Take `NCCCNCCCCN1CC1`: the TGI in the experiment on OVCAR-4 ovarian was 1.53 µM; in the experiment with SF-268 CNS it was greater than 29.9 µM; in the experiment on SF-295 CNS, greater than 55.9 µM; in the experiment on DU-145 prostate it was 6.17 µM; in the experiment with A549 NSCLC, greater than 44.5 µM; with RPMI-8226 leukemia, greater than 21.3 µM. Also, the TGI with U251 CNS is greater than 26.2 µM; with SNB-19 CNS, greater than 23.8 µM.
For `CCOC(=O)C(NC(=O)OC(C)(C)C)C(=O)OCC`, the TGI in the experiment on OVCAR-4 ovarian, with SF-268 CNS, in the experiment with DU-145 prostate, with A549 NSCLC, in the experiment on RPMI-8226 leukemia and with U251 CNS was greater than 100 µM each time. The TGI in the experiment with SNB-19 CNS was greater than 100 µM.
Regarding `CN(Cc1cc(Cl)c(Cl)cc1NC(=O)CN)[C@H]1CCCC[C@@H]1N1CCCC1`, the TGI was 33.6 µM in the experiment on MALME-3M melanoma; greater than 100 µM with OVCAR-4 ovarian; greater than 100 µM with MDA-MB-231 breast; greater than 100 µM in the experiment on SF-268 CNS; 36.6 µM with SF-295 CNS; greater than 100 µM in the experiment with A549 NSCLC. The values for the TGI in the experiment with U251 CNS and in the experiment on SNB-19 CNS were 18.8 µM and greater than 100 µM, respectively.
For `CC(=O)/C(=C/N1CCNC1=S)C(=O)Nc1ccccc1C`, the TGI with OVCAR-4 ovarian, with MDA-MB-231 breast, in the experiment on SF-268 CNS, with SF-295 CNS, with DU-145 prostate and with A549 NSCLC was greater than 100 µM in each case. For the same compound, the TGI in the experiment on RPMI-8226 leukemia, in the experiment on U251 CNS and in the experiment on SNB-19 CNS was greater than 100 µM each time.
With `Cc1nc2ccccc2c(/C=C/c2ccc(Cl)cc2)c1C(=O)/C=C/c1ccccc1`, the GI50 in the experiment with MALME-3M melanoma was 1.63 µM; in the experiment with MDA-MB-231 breast, 1.87 µM; with A549 NSCLC it was 2.24 µM; in the experiment with RPMI-8226 leukemia, 1.26 µM; in the experiment with U251 CNS it was 1.61 µM. Further, the TGI in the experiment on MALME-3M melanoma is 3.01 µM; in the experiment on MDA-MB-231 breast, 4.37 µM; in the experiment on A549 NSCLC, 6.54 µM; in the experiment on RPMI-8226 leukemia it was 6.5 µM; in the experiment on U251 CNS it was 3.07 µM.
In the case of `Cc1ccc(CCC(=O)C(=O)O)s1`, the TGI in the experiment with MALME-3M melanoma, in the experiment on OVCAR-4 ovarian, with SF-268 CNS, with SF-295 CNS, in the experiment with A549 NSCLC and with RPMI-8226 leukemia was greater than 100 µM throughout. The TGI in the experiment on U251 CNS and in the experiment on SNB-19 CNS was greater than 100 µM throughout.
On to `CC1=C(C)C(=O)C(C2=CC(=O)C=CC2=O)=C(C2=CC(=O)C=CC2=O)C1=O`, for which the TGI with MALME-3M melanoma was greater than 100 µM; with OVCAR-4 ovarian, 51.3 µM; with MDA-MB-231 breast it was 42.5 µM; in the experiment on SF-268 CNS it was greater than 100 µM; in the experiment on SF-295 CNS, greater than 100 µM; in the experiment with DU-145 prostate it was greater than 100 µM. Moreover, the values for the TGI in the experiment on A549 NSCLC, with U251 CNS and in the experiment on SNB-19 CNS were greater than 100 µM, greater than 77.5 µM and greater than 100 µM, respectively.
As to `O=c1[nH]c(=S)c2cc3c(=S)[nH]c(=O)n(CCO)c3nc2n1CCO`, the TGI in the experiment with MALME-3M melanoma, in the experiment with OVCAR-4 ovarian, in the experiment with MDA-MB-231 breast, in the experiment on SF-268 CNS, with SF-295 CNS and in the experiment on A549 NSCLC was greater than 100 µM in each case. The TGI in the experiment with RPMI-8226 leukemia, in the experiment on U251 CNS and with SNB-19 CNS was greater than 100 µM throughout.
As for `O=[N+]([O-])C(Cl)=C/C(=C(\Cl)SCc1ccccc1)[N+](=O)[O-]`, the TGI with MALME-3M melanoma is 57.8 µM; in the experiment on OVCAR-4 ovarian it was 41.2 µM; with MDA-MB-231 breast it was 59.3 µM; in the experiment with SF-268 CNS it was greater than 100 µM; in the experiment with SF-295 CNS, 99.6 µM; in the experiment on DU-145 prostate it was greater than 100 µM. In addition, the TGI is 73.5 µM in the experiment with A549 NSCLC, 34.9 µM with U251 CNS and greater than 100 µM in the experiment on SNB-19 CNS.
Turning to `O=c1ccc2nc(-c3ccccn3)nn(-c3ccccc3)c-2c1`, the GI50 in the experiment with MALME-3M melanoma is 1.77 µM; in the experiment on OVCAR-4 ovarian, 1.56 µM; in the experiment with MDA-MB-231 breast, 1.92 µM; with SF-268 CNS, 11.8 µM; with SF-295 CNS, 13.9 µM; with DU-145 prostate, 3.77 µM. In addition, the GI50 was 18.4 µM with A549 NSCLC and 3.7 µM with U251 CNS. For the same compound, the TGI with MALME-3M melanoma came out at 3.37 µM; in the experiment with OVCAR-4 ovarian, 3.04 µM; with MDA-MB-231 breast, 3.68 µM; with SF-268 CNS, 25.3 µM; in the experiment with SF-295 CNS, 27.4 µM; in the experiment with DU-145 prostate, 11.1 µM. Moreover, the results for the TGI in the experiment on A549 NSCLC and in the experiment on U251 CNS were 42.3 µM and 14.2 µM, respectively.
Regarding `COc1ccc2nc3cc(Cl)ccc3c(NCCNc3c4ccc(Cl)cc4nc4ccc(OC)cc34)c2c1`, the GI50 with MALME-3M melanoma is 2.07 µM; in the experiment on DU-145 prostate, 1.68 µM; with RPMI-8226 leukemia it was 2.04 µM; in the experiment with U251 CNS it was 1.77 µM. The TGI with MALME-3M melanoma came out at 3.76 µM; in the experiment on DU-145 prostate, 3.08 µM; in the experiment with RPMI-8226 leukemia, 4.59 µM; in the experiment with U251 CNS, 3.28 µM.
Turning to `CCCC(=O)[O-].N.N.N.N.N.[Co+3].[O-][Cl+3]([O-])([O-])[O-]`, the TGI with MALME-3M melanoma, with OVCAR-4 ovarian, with SF-268 CNS, in the experiment with SF-295 CNS, in the experiment with A549 NSCLC and in the experiment with RPMI-8226 leukemia was greater than 100 µM each time. The TGI with U251 CNS and in the experiment on SNB-19 CNS was greater than 100 µM in each case.
With `C=C(C(=O)O[C@H]1C(=O)C2=C(C)CCC3C(=C)C(=O)O[C@@H]3C2[C@]1(C)O)C1CC[C@]2(C)CCCC(=C)[C@H]2C1` (stereo not given in full), the GI50 is 15.5 µM in the experiment on MALME-3M melanoma; 6.69 µM in the experiment on OVCAR-4 ovarian; 7.47 µM with SF-268 CNS; 0.0252 µM in the experiment with SF-295 CNS; 5.37 µM in the experiment on DU-145 prostate; 5.59 µM in the experiment on A549 NSCLC. In addition, the GI50 with U251 CNS is 0.117 µM. Also, the TGI was 16.3 µM and 31.1 µM with MALME-3M melanoma; 13.4 µM and 11.3 µM in the experiment with OVCAR-4 ovarian; 13.8 µM in the experiment with MDA-MB-231 breast; 14.8 µM and 11 µM with SF-268 CNS; 9.37 µM and 29.5 µM in the experiment with SF-295 CNS; 11.3 µM and 10.3 µM in the experiment on DU-145 prostate. The TGI in the experiment on A549 NSCLC was 12.9 µM and 24.5 µM; in the experiment with U251 CNS, 7.04 µM and 9.95 µM; in the experiment with SNB-19 CNS, 26.6 µM.
